Measured values: a melting point compilation (Tetko et al.; mined from patent text by program, amines drawn as free bases though some values may be those of a salt)

| Structure (SMILES) | melting point [°C] |
| --- | --- |
| N#Cc1ccc(CC=O)cc1 | 63 to 65 |
| Clc1ccc(CCOc2ncnc3ccccc23)cc1 | 57 to 58 |
| COc1ccc(C(=O)c2nccs2)cc1OCc1ccc2ccccc2c1 | 80 |
| CCCCCCCCNC(=O)CP(=O)(O)O | 142 to 143 |
| O=C(O)Cn1cc(Cc2nc3c(F)c(F)cc(F)c3s2)c2cccc(F)c21 | 194 to 196 |
| Cc1ccc(Oc2ccc(-n3cc(C(=O)O)nn3)cc2)c(O)c1 | 159 to 161 |
| O=C1CN(c2ccc(Cl)cc2)C(=O)N1C(=O)c1c(Cl)cccc1Cl | 176 to 180 |
| O=C(O)Cc1ccc(Oc2cccc(C(F)(F)F)c2)cc1 | 61 to 63 |
| CCOCCn1c(CN2CCN(Cc3ccccc3)CC2C)nc2cccnc21 (configuration not stated) | 91.2 |
| COc1cc(CCCCCCC2OC(=O)NC2=O)ccc1OCc1nc(-c2ccccc2)oc1C (configuration not stated) | 113 to 117 |
| COc1ccc(Cl)cc1-c1c(Sc2ccncc2)c(=O)[nH]c2ccc(C(F)(F)F)cc12 | 257 to 260 |
| COc1cn(-c2cccc(-c3cccnc3)c2F)nc(-c2ccnn2-c2ccccc2)c1=O | 147 to 153 |
| CC(C)S(=O)(=O)c1cnc2c(c1)nc(CC(C)(C)C)n2CC1(O)CCOCC1 | 179 |
| COC(=O)c1ccc(OCCCCCCc2cccc(OCc3ccccc3)c2OCc2ccccc2)c(Cl)c1 | 68 to 69 |
| Nc1sc2c(c1C(=O)c1cccc3ccccc13)CCN(Cc1ccccc1)C2 | 178 to 180 |

Next, values leading:

| melting point [°C] | Structure (SMILES) |
| --- | --- |
| 144 to 145 | CCCCc1noc(-c2ccc(C=CC(=O)NCC3CCCC3(C)C)cc2)n1 (configuration not stated) |
| 196 to 198 | Nc1cc(CS(=O)(=O)CCO)ccc1CS(=O)(=O)CCO |
| 188 to 190 | Cc1ccc2oc(=O)c(C(=O)Oc3cccc4cnccc34)cc2c1 |
| 126 to 128 | COc1ccc(N2CCN(c3c(C)c(C)c4c(c3C)C(c3ccccc3)C(C)(C)O4)CC2)cc1 (configuration not stated) |
| 177 to 180 | CC(=O)Nc1ccc(C2=NNC(=O)Cc3cc4c(cc32)OCO4)cc1 |
| 258 to 260 | O=C(NCN1CCOCC1)c1cn(-c2ccc(F)cc2)c2cc(-c3ccncc3)ccc2c1=O |
| 315 to 317 | CC1(C)C(=O)Nc2ccc(C3=NNC(=O)C4CCC34)cc21 (configuration not stated) |
| 195 to 197 | O=C1C(=O)c2ccccc2C2=C1SCC1(CCOCC1)O2 |
| 84 to 85 | CC(CC[Si](CCC(C)[N+](=O)[O-])(c1ccccc1)c1ccccc1)[N+](=O)[O-] (configuration not stated) |
| 121 to 122 | CCCCNC(=O)n1c(=NC(F)(F)F)oc2ccc([N+](=O)[O-])cc21 |
| 98 to 99 | O=C(CCBr)N1CC(c2ccccc2)c2ccccc21 (configuration not stated) |
| 177 to 178 | CC(C)(C)OC(=O)Nc1ccc(CC(=O)N2CCC(c3[nH]nc4c3C(=O)c3c(NC(=O)NN5CCOCC5)cccc3-4)CC2)cc1 |
| 183 to 185 | CC12CCC(=O)C([N+](=O)[O-])=C1CCC1C2CCC2(C)C(C(O)CO)CCC12 (configuration not stated) |
| 111 to 113 | CC(C)(C)OC(=O)N1CCC(c2noc3c(C(F)(F)F)cccc23)CC1 |
| 132 to 135 | CN(c1cccc2cc(C3=NCC(CC(=O)N4CCC[C@H]4C(=O)O)S3)[nH]c12)S(=O)(=O)c1ccccc1C(F)(F)F (some centres not stated) |
| 107 to 113 | COC(=O)C1=C(C)NC(C)=C(C(=O)NCCOC(=O)N2CCC3(CC2)CC(=O)N(OC)C3=O)C1c1cccc([N+](=O)[O-])c1 (configuration not stated) |
| 204 to 208 | NC(=O)c1sc2nccc(N3CCCN(c4ccc(C(F)(F)F)cc4)CC3)c2c1N |
| 120 | COc1ccc(CN(CCN(C)CCCNC(=O)NCCCOc2cccc(CN3CCCCC3)c2)c2ccccn2)cc1 |
| 108 | Nc1ccc(Cl)cc1NC1CCN(Cc2ccccc2)CC1 |
| 111 to 112 | CCOC(=O)C1=C(C)NC(C=O)=C(C(=O)OCC)C1c1ccccc1OC (configuration not stated) |
| 173 | O=C(O)c1cc(C(F)(F)F)cc([N+](=O)[O-])c1Cl |
| 198 to 199 | CCOC(=O)NC(=N)c1ccc(-n2cc(C)n(-c3ccc(CCC(=O)OC)cc3)c2=O)cc1 |
